Reference: patent US20250257034A1, “INDOLE DERIVATIVES AS SEROTONERGIC AGENTS USEFUL FOR THE TREATMENT OF DISORDERS RELATED THERETO” (priority 2023, published 2025)
Like-named read-outs stand apart in the source and are kept apart here.

Target: T1, human 5-HT1A receptor (Homo sapiens, UniProt P08908)
T1 sequence (P08908 1-422): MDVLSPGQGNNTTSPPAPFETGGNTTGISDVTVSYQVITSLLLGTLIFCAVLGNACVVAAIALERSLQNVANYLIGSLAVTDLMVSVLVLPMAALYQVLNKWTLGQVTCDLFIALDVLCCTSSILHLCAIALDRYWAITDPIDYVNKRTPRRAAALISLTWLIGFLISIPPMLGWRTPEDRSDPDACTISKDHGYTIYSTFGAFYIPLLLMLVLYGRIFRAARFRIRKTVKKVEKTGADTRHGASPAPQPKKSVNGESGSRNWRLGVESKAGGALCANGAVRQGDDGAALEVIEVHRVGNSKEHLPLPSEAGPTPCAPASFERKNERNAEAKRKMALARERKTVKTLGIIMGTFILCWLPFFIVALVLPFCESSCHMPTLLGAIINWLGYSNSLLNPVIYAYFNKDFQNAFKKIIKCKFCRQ
Test: Human 5-HT1A functional FLIPR assay (agonist mode)
Assay type: cell-based
Design: expressed in transfected cells; host or cells: HTR1A&Gα15-CHO
Procedure: The potential excitatory effects of compounds targeting on 5-hydroxytryptamine receptor 1A (5-HT1A) under agonist mode was assessed.
HTR1A&Gα15-CH0 cells were cultured in DMEM/F12 medium containing 10% dialyzed FBS, 1×penicillin-streptomycin and 600 μg/mL Hygromycin B. The cells were passaged about three times a week, maintained between ˜30% to ˜90% confluence.
1. The cell culture medium (DMEM/F12 medium containing 10% dialyzed FBS, 1×penicillin-streptomycin and 600 μg/mL Hygromycin B), TrypLE™ Express and DPBS was warmed to R.T. in advance.
2. The cell culture medium was removed from flask. Washed cells with DPBS.
3. 1 mL TrypLE™ Express was added to the flask, mixed well by gentle shaking and cells were incubated at 37° C. for a few minutes.
4. The cells were checked for morphological change under microscope, the digestion was stopped by adding 2 mL cell culture medium to the flask when most of cells turned to round.
5. The cell suspension was transferred into a 15 mL centrifuge tube, and then centrifuged at 1,200 rpm for 5 minutes.
6. The supernatant was removed. The cell pellets were resuspended with 2 mL cell culture medium.
7. The cell density was counted using a cell counter.
8. Cells were diluted to 4×10^5/mL with cell culture medium.
9. 30 μL/well cell suspensions were added into a 384-well cell plate (the cell density was 12,000 cells/well).
10. The cell plate was incubated overnight at 37° C., 5% (v/v) CO2.
1. On the day of experiments, culture medium was removed from the cell plate.
2. 10 μL of assay buffer (20 mM HEPES, in 1x HBSS, pH 7.4) was added to each well of the cell plate.
3. 2×dye solution was prepared following the manufacturer's instruction of the FLIPR® Calcium 6 assay kit: • i. The dye was diluted with assay buffer. • ii. probenecid was added to the final concentration of 5 mM. • iii. Vortexed vigorously for I-2 minutes, adjust pH to 7.4.
4. 10 μL of 2×dye solution was added to each well of the cell plate.
5. The cell plate was placed on plate shaker, followed by shaking at 600 rpm for 2 minutes.
6. The plate was incubated at 37° C. for 2 hours followed by an additional 15-minute incubation at 25° C.
1. Serotonin was prepared to the concentration of 10 mM with DMSO, 3-folds serial dilutions were performed with DMSO.
2. Prepared the test compound to the concentration of 10 mM with DMSO, preform 3-folds serial dilutions with DMSO.
3. The compounds were added to a 384-well compound source plate.
4. 90 nL/well of serial diluted compounds were transferred from source plate to a 384-well compound plate by using an Echo.
5. 30 μL/well of assay buffer was added to the compound plate.
6. The plate was mixed on-plate shaker for 2 minutes.
1. After the cells incubated with dye solution, the cell plate, compound plate containing 3×compounds and F LIP R tips were placed into F LIP R.
2. 10 μL of 3×compounds were transferred from the compound plate to the cell plate by F LIP R.
3. The plate was read for 160 sec with 1 sec interval to obtain the data of agonist mode.
1. The normalized fluorescence reading (RFU) was calculated as shown below, wherein Fmax and Fmin stand for maximum and minimum of calcium signal during defined time window:
2. EC50 was calculated by fitting RFU against log of compound concentrations with Hill equation using XLfit.
HTR1A&Gα15-C H0 cells were cultured in DMEM/F 12 medium containing 10% dialyzed FBS, 1x penicillin-streptomycin and 600 μg/mL Hygromycin B. The cells were passaged about three times a week, maintained between ˜30% to ˜90% confluence.
1. The cell culture medium (DMEM/F 12 medium containing 10% dialyzed FBS, 1x penicillin-streptomycin and 600 μg/mL Hygromycin B), TrypLE™ Express and DPBS was warmed to R.T. in advance.
7. The cell density was counted using cell counter.
9. 30 μL/well cell suspensions were added into a 384-well cell plate (The cell density was 12,000 cells/well).
3. 2×dye solution was prepared following the manufacture's instruction of the F LIP R® Calcium 6 assay kit: • i.

Structure (SMILES) | EC50 [µM] | RFU@10 μM (RFU=Fmax−Fmin (Table 47)) | RFU@10 μM (RFU=Fmax−Fmin (Table 18)) | EC50 (FLIPR calcium, agonist mode, HTR1A&Gα15-CHO cells (Table 47), read-out: h5-HT1A, EC50) [µM]
COc1ccc2[nH]cc(CCN3CC[C@H](OC(F)F)C3)c2c1 [(S) I-67, (S)-3-(2-(3-(Difluoromethoxy)pyrrolidin-1-yl)ethyl)-5-methoxy-1H-indole] | 0.187 | 3,930 RFU | – | –
CCN(CC)CCc1c[nH]c2ccc(SC)cc12 [Compound I-12, N,N-Diethyl-2-(5-(methylthio)-1H-indol-3-yl)ethan-1-amine] | 0.675 | – | 3,735 RFU | –
[2H]C([2H])([2H])N(CCc1c[nH]c2ccc(SC)cc12)C([2H])([2H])[2H] [Compound I-1, N,N-Bis(methyl-d3)-2-(5-(methylthio)-1H-indol-3-yl)ethan-1-amine] | 0.928 | – | 2,858 RFU | –
CN(CCOC(F)F)CCc1c[nH]c2ccccc12 [Compound I-130, N-(2-(1H-Indol-3-yl)ethyl)-2-(difluoromethoxy)-N-methylethan-1-amine] | – | 163 RFU | – | –
CN(C)CCc1c[nH]c2ccc(OCCOC(F)F)cc12 [Compound I-128, 2-(5-(2-(Difluoromethoxy)ethoxy)-1H-indol-3-yl)-N,N-dimethylethan-1-amine] | – | 314 RFU | – | –
COc1ccc2[nH]cc(CCN3CC[C@@H](OC)C3)c2c1 [(R) I-66, (R)-5-methoxy-3-(2-(3-methoxypyrrolidin-1-yl)ethyl)-1H-indole] | 0.977 | 3,690 RFU | – | –
CSc1ccc2[nH]cc(CCN(C)C(C)C)c2c1 [Compound I-19, N-Methyl-N-(2-(5-(methylthio)-1H-indol-3-yl)ethyl)propan-2-amine] | 3.87 | – | 2,161 RFU | –
COc1ccc2[nH]cc(CCN(C)CCOC(F)F)c2c1 [Compound I-71, 2-(Difluoromethoxy)-N-(2-(5-methoxy-1H-indol-3-yl)ethyl)-N-methylethan-1-amine] | – | 3,087 RFU | – | 1.84
CSc1ccc2[nH]cc(CCN(C(C)C)C(C)C)c2c1 [Compound I-17, N-Isopropyl-N-(2-(5-(methylthio)-1H-indol-3-yl)ethyl)propan-2-amine] | 3.38 | – | 2,289 RFU | –
CCN(C)CCc1c[nH]c2ccc(SC)cc12 [Compound I-13, N-Ethyl-N-methyl-2-(5-(methylthio)-1H-indol-3-yl)ethan-1-amine] | 0.693 | – | 4,279 RFU | –
CN(C)CCc1c[nH]c2ccccc12 [DMT] | – | 204 RFU | 204 RFU | –
COc1ccc2[nH]cc(CCN3CC[C@@H](OC(F)F)C3)c2c1 [(R) I-67, (R)-3-(2-(3-(Difluoromethoxy)pyrrolidin-1-yl)ethyl)-5-methoxy-1H-indole] | 1.6 | 3,988 RFU | – | –
